# Laboratory results taken from patent publication US9988407B2, “Prodrugs of prostate specific membrane antigen (PSMA) inhibitor” (THE JOHNS HOPKINS UNIVERSITY, priority 2014, dated 2018).
# Entries after “also recorded” stand apart in the source; their conditions may differ.
# Experiments:
# [1] = tested on: DSS-induced colitis; test: DSS-induced murine model of colitis; type: in vivo, C57/B6 mice
# Description: Disease activity index (DAI), which positively correlated with the disease severity, was used as a measure for clinical activity. * P<0.05;
# (§1) To investigate whether PSMA can be a suitable novel therapeutic target for clinical intervention against IBD, the effect of PSMA prototype inhibitors on three most widely used murine models of IBD was tested, including DNBS-induced colitis, DSS-induced colitis, and IL-10 knockout (IL-10 KO) mice (a genetic model that develops spontaneous colitis). In all three models, PSMA inhibitor treatment dramatically ameliorated symptoms. […] The improvement of these prolapse-retracting mice was unequivocally obvious in that their body weight increased dramatically when compared to that of untreated control IL-10 KO mice (FIG. 21C).
# [2] = tested on: spontaneous colitis in IL-10 KO mice; test: Spontaneous colitis in IL-10 knockout mice; type: in vivo, IL-10 KO mice (C57/B6)
# Description: as §1
# [3] = tested on: EAE; details: cited from earlier work
# [4] = target: T1, PSMA (Mus musculus, UniProt O35409); test: PSMA activity in colonic or cecal mucosa of DSS-treated mice; type: in vivo; details: DSS-induced colitis, mucosa extract
# T1 construct: from tissue; host or cells: colonic or cecal mucosa of C57/B6 mice with DSS-induced colitis
# T1 sequence (O35409 whole entry): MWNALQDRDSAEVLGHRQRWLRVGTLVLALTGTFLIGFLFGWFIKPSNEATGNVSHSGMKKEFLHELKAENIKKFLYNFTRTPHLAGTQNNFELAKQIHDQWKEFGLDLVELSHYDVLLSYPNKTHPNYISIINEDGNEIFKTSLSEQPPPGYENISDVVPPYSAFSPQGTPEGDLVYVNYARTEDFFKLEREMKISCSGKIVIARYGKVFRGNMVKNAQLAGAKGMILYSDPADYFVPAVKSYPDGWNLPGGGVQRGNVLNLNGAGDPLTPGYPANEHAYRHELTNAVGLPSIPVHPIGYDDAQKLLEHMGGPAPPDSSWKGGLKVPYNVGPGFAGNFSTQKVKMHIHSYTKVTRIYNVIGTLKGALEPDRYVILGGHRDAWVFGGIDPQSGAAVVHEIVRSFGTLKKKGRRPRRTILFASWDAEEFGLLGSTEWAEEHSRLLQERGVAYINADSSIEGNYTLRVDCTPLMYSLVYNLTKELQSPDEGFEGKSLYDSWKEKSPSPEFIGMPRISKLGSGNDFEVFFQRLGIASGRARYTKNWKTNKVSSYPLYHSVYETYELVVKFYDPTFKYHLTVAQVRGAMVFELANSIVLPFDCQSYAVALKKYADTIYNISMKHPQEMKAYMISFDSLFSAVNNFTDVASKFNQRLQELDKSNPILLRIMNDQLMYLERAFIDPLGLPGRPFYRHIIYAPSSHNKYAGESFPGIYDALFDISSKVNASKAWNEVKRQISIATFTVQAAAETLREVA
# Description: PSMA activity was measured using extract from mucosa;
# as §1
# [5] = cited from earlier work
compound,measurement,setting,value
"O=C(O)CCC(CP(=O)(O)O)C(=O)O (stereo not drawn) [Compound 2-PMPA, 2-phosponomethyl pentanedioic acid]",dose response,"[1]; 1, 10, and 100 mg/kg i.p., murine IBD models",dose dependent effect with 100 mg/kg provided the most benefit
same,efficacy,"[1]; i.p. administration at 100 mg/kg, DSS model",excellent efficacy
same,"disease severity (macroscopic disease, prolapse), words",[2]; 100 mg/kg for 2 weeks,not only improvement of disease but even retraction of prolapse; also recorded: significantly reduced the disease severity
same,"complete retraction of prolapse, share of treated mice",[2]; 2 of the 20 mice,10%
same,efficacy,"[2]; i.p. administration at 100 mg/kg, IL 10 knock out model",excellent efficacy
same,cognitive function,"[3]; EAE mice, Barnes maze",improves cognitive function; also recorded: cognition was significantly improved
same,brain NAAG,"[3]; EAE mice, post mortem analysis",elevates NAAG; also recorded: significant increase in brain NAAG
same,physical severity of EAE,[3]; EAE mice,no difference in physical severity was observed
same,"fear conditioning, fear memory",[3]; EAE+2-PMPA vs EAE+Vehicle,significant difference between fear memory
same,PSMA activity in colonic or cecal mucosa,[4],effectively suppresses PSMA activity
same,oral availability F,[5]; 2-PMPA itself,< 1%
same,concentrations in the brain,[5]; after 50-100 mg/kg intraperitoneal injection (i.p.) doses,30 to 50 µM
